Data as given in patent US7235258B1, “Sustained-release formulations for treating CNS-mediated disorders” (NPS Pharmaceuticals, Inc., priority 1999, dated 2007).
Like-named read-outs stand apart in the source and are kept apart here.

Tests used:
[1] = Water solubility of the drug (statement); format: physicochemical
[2] = Safety and tolerability in the ascending single oral dose study; format: in vivo, human
Procedure: (§1) Isovaleramide (NPS 1776) was orally administered in a double-blind, placebo-controlled, ascending single dose study conducted in two groups of healthy young male Caucasian subjects and one group of healthy young female Caucasian subjects to investigate the safety, tolerability, pharmacodynamics and pharmacokinetics of the drug. Various amounts of the drug were dissolved in 250 mL of a flavored soft drink (powdered soft drink diluted in mineral water) and administered as an oral solution.
The most common adverse events were polyuria and headache. There were no dose-related trends in the incidence or severity of adverse events, or any difference in the incidence or severity of adverse events reported. Similar results were obtained in a 1200 mg dose level female group administered the drug for gender comparison.

[3] = Ascending single oral dose pharmacokinetic study of isovaleramide (oral solution) in healthy subjects; format: in vivo, human; conditions: for half-life / Cmax / CL/F: human; for CL/F: arithmetic mean
Procedure: as §1
Isovaleramide administered orally in the absence of a sustained-release formulation was rapidly absorbed and rapidly eliminated in human subjects (Table 1). Systemic exposure to the drug increased with increasing oral doses from 100 to 1600 mg in male subjects.

water solubility [1]: very water soluble | time at which blood level falls below the effective concentration ([3]; 1200 mg dose, assumed effective target concentration about 10 μg/mL): about 5 hours | half-life ([3]; female, plasma, females, oral, 1200 mg, read-out: t½ (converted)): 1.89 h | Cmax ([3]; blood, oral, 1200 mg, read-out: initial maximum blood concentration (Cmax)): ~27000 ng/mL | half-life ([3]; plasma, humans, oral, no sustained-release formulation, doses 100 to 1600 mg, read-out: half-life (converted)): ~2.5 h | CL/F ([3]; plasma, male humans, oral, 100 mg): 3.83 mL/min/kg | Cmax ([3]; plasma, male humans, oral, 100 mg, geometric mean, read-out: Cmax): 1510 ng/mL | half-life ([3]; plasma, male humans, oral, 100 mg, harmonic mean, read-out: t1/2 (converted)): 2.7 h | CL/F ([3]; plasma, male humans, oral, 200 mg): 3.08 mL/min/kg | Cmax ([3]; plasma, male humans, oral, 200 mg, geometric mean, read-out: Cmax): 3320 ng/mL | half-life ([3]; plasma, male humans, oral, 200 mg, harmonic mean, read-out: t1/2 (converted)): 2.61 h | CL/F ([3]; plasma, male humans, oral, 400 mg): 3.13 mL/min/kg | Cmax ([3]; plasma, male humans, oral, 400 mg, geometric mean, read-out: Cmax): 6840 ng/mL | half-life ([3]; plasma, male humans, oral, 400 mg, harmonic mean, read-out: t1/2 (converted)): 2.5 h | CL/F ([3]; plasma, male humans, oral, 800 mg): 2.73 mL/min/kg | Cmax ([3]; plasma, male humans, oral, 800 mg, geometric mean, read-out: Cmax): 16400 ng/mL | half-life ([3]; plasma, male humans, oral, 800 mg, harmonic mean, read-out: t1/2 (converted)): 2.35 h | CL/F ([3]; plasma, male humans, oral, 1200 mg): 2.47 mL/min/kg | Cmax ([3]; plasma, male humans, oral, 1200 mg, geometric mean, read-out: Cmax): 27900 ng/mL | half-life ([3]; plasma, male humans, oral, 1200 mg, harmonic mean, read-out: t1/2 (converted)): 2.43 h | CL/F ([3]; plasma, male humans, oral, 1600 mg): 2.17 mL/min/kg | Cmax ([3]; plasma, male humans, oral, 1600 mg, geometric mean, read-out: Cmax): 39300 ng/mL | half-life ([3]; plasma, male humans, oral, 1600 mg, harmonic mean, read-out: t1/2 (converted)): 2.65 h | time to maximum drug concentration ([3]; humans, oral, all doses): less than one hour | time to maximum drug concentration, typical ([3]; humans, oral, all doses): about 30 minutes | increase in Cmax and AUC relative to increase in dose level ([3]; male subjects, oral, 100 to 1600 mg): slightly greater than proportional | change in drug concentration in the blood over a 12-hour period ([3]; single dose, for a 2.5-hour half-life): about 10 fold
SMILES: CC(C)CC(N)=O [Isovaleramide]
changes in vital signs, 12-lead ECG, clinical laboratory assessments or physical examination ([2]; all dose levels): no clinically significant drug-or dose-related changes | tolerability ([2]; oral 100 to 1600 mg, healthy male subjects): well tolerated | severity of drug-related adverse events ([2]; oral 100 to 1600 mg, few events, most common polyuria and headache): all were mild in severity
